# Results from PubChem BioAssay (NCI).
#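 GI50 is the concentration that inhibits growth by half. TGI: concentration producing complete growth inhibition.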
# Assays:
# Test in all cases: inhibition of tumour cell growth, NCI panel, 384-well format
# MDA-MB-231 breast = system: MDA-MB-231 breast
# SK-MEL-2 melanoma = system: SK-MEL-2 melanoma
# NCI-H322M lung = system: NCI-H322M lung
# HCC-2998 colon = system: HCC-2998 colon
# RPMI-8226 leukemia = system: RPMI-8226 leukemia
# NCI-H23 lung = system: NCI-H23 lung
# HOP-62 NSCLC = system: HOP-62 NSCLC
# IGROV1 ovarian = system: IGROV1 ovarian
# A498 renal = system: A498 renal
# COLO 205 colon = system: COLO 205 colon
# HCT-15 colon = system: HCT-15 colon
# SF-268 CNS = system: SF-268 CNS
# HL-60(TB) leukemia = system: HL-60(TB) leukemia
# 786-0 renal = system: 786-0 renal
# HCT-116 colon = system: HCT-116 colon
# MALME-3M melanoma = system: MALME-3M melanoma
# CCRF-CEM leukemia = system: CCRF-CEM leukemia
# NCI/ADR-RES ovarian = system: NCI/ADR-RES ovarian
# A549 NSCLC = system: A549 NSCLC
# BT-549 breast = system: BT-549 breast
# M14 melanoma = system: M14 melanoma
# SK-MEL-28 melanoma = system: SK-MEL-28 melanoma
# UACC-257 melanoma = system: UACC-257 melanoma
# U251 glioblastoma = system: U251 glioblastoma
# EKVX NSCLC = system: EKVX NSCLC
# MDA-MB-468 breast = system: MDA-MB-468 breast
# NCI-H460 NSCLC = system: NCI-H460 NSCLC
# MOLT-4 leukemia = system: MOLT-4 leukemia
# RXF 393 renal = system: RXF 393 renal
# MCF7 breast = system: MCF7 breast
# SK-OV-3 ovarian = system: SK-OV-3 ovarian
# SK-MEL-5 melanoma = system: SK-MEL-5 melanoma
# OVCAR-8 ovarian = system: OVCAR-8 ovarian
# LOX IMVI melanoma = system: LOX IMVI melanoma
# PC-3 prostate = system: PC-3 prostate
# SNB-19 CNS = system: SNB-19 CNS
# OVCAR-3 ovarian = system: OVCAR-3 ovarian
# HS 578T breast = system: HS 578T breast
# OVCAR-4 ovarian = system: OVCAR-4 ovarian
# TK-10 renal = system: TK-10 renal
# SF-539 CNS = system: SF-539 CNS
# SR leukemia = system: SR leukemia
# UACC-62 melanoma = system: UACC-62 melanoma
# SNB-75 CNS = system: SNB-75 CNS
# MDA-MB-435 melanoma = system: MDA-MB-435 melanoma
# SN12C renal = system: SN12C renal
# K-562 leukemia = system: K-562 leukemia
# HT29 colon = system: HT29 colon
# KM12 colon = system: KM12 colon
smiles,measurement,setting,value
CN(c1ncccc1CNc1nc(Nc2ccc3c(c2)CC(=O)N3)ncc1C(F)(F)F)S(C)(=O)=O,GI50,MDA-MB-231 breast,2550 nM
same,TGI,MDA-MB-231 breast,> 100000 nM
same,GI50,SK-MEL-2 melanoma,1850 nM
same,TGI,SK-MEL-2 melanoma,3580 nM
same,GI50,NCI-H322M lung,2010 nM
same,TGI,NCI-H322M lung,4450 nM
same,GI50,HCC-2998 colon,1190 nM
same,TGI,HCC-2998 colon,3210 nM
same,GI50,RPMI-8226 leukemia,1660 nM
same,TGI,RPMI-8226 leukemia,3030 nM
same,GI50,NCI-H23 lung,1790 nM
same,TGI,NCI-H23 lung,3340 nM
same,GI50,HOP-62 NSCLC,1970 nM
same,TGI,HOP-62 NSCLC,7830 nM
same,GI50,IGROV1 ovarian,2420 nM
same,TGI,IGROV1 ovarian,> 100000 nM
same,GI50,A498 renal,2910 nM
same,TGI,A498 renal,> 100000 nM
same,GI50,COLO 205 colon,1460 nM
same,TGI,COLO 205 colon,4280 nM
same,GI50,HCT-15 colon,3810 nM
same,TGI,HCT-15 colon,17000 nM
same,GI50,SF-268 CNS,1820 nM
same,TGI,SF-268 CNS,3990 nM
same,GI50,HL-60(TB) leukemia,1700 nM
same,TGI,HL-60(TB) leukemia,3090 nM
same,GI50,786-0 renal,2440 nM
same,TGI,786-0 renal,7780 nM
same,GI50,HCT-116 colon,1890 nM
same,TGI,HCT-116 colon,> 100000 nM
same,GI50,MALME-3M melanoma,2200 nM
same,TGI,MALME-3M melanoma,4940 nM
same,GI50,CCRF-CEM leukemia,1710 nM
same,TGI,CCRF-CEM leukemia,3330 nM
same,GI50,NCI/ADR-RES ovarian,26000 nM
same,TGI,NCI/ADR-RES ovarian,95600 nM
same,GI50,A549 NSCLC,3150 nM
same,TGI,A549 NSCLC,> 100000 nM
same,GI50,BT-549 breast,1740 nM
same,TGI,BT-549 breast,3880 nM
same,GI50,M14 melanoma,1750 nM
same,TGI,M14 melanoma,4240 nM
same,GI50,SK-MEL-28 melanoma,1850 nM
same,TGI,SK-MEL-28 melanoma,4200 nM
same,GI50,UACC-257 melanoma,2010 nM
same,TGI,UACC-257 melanoma,4340 nM
same,GI50,U251 glioblastoma,2880 nM
same,TGI,U251 glioblastoma,> 100000 nM
same,GI50,EKVX NSCLC,1490 nM
same,TGI,EKVX NSCLC,4170 nM
same,GI50,MDA-MB-468 breast,1850 nM
same,TGI,MDA-MB-468 breast,3380 nM
same,GI50,NCI-H460 NSCLC,1610 nM
same,TGI,NCI-H460 NSCLC,3290 nM
same,GI50,MOLT-4 leukemia,431 nM
same,TGI,MOLT-4 leukemia,1300 nM
same,GI50,RXF 393 renal,1200 nM
same,TGI,RXF 393 renal,2690 nM
same,GI50,MCF7 breast,1020 nM
same,TGI,MCF7 breast,8250 nM
same,GI50,SK-OV-3 ovarian,3100 nM
same,TGI,SK-OV-3 ovarian,> 100000 nM
same,GI50,SK-MEL-5 melanoma,1630 nM
same,TGI,SK-MEL-5 melanoma,3110 nM
same,GI50,OVCAR-8 ovarian,3310 nM
same,TGI,OVCAR-8 ovarian,> 100000 nM
same,GI50,LOX IMVI melanoma,1540 nM
same,TGI,LOX IMVI melanoma,3580 nM
same,GI50,PC-3 prostate,2510 nM
same,TGI,PC-3 prostate,> 100000 nM
same,GI50,SNB-19 CNS,3390 nM
same,TGI,SNB-19 CNS,> 100000 nM
same,GI50,OVCAR-3 ovarian,2000 nM
same,TGI,OVCAR-3 ovarian,4740 nM
same,GI50,HS 578T breast,1620 nM
same,TGI,HS 578T breast,3700 nM
same,GI50,OVCAR-4 ovarian,2480 nM
same,TGI,OVCAR-4 ovarian,8640 nM
same,GI50,TK-10 renal,2790 nM
same,TGI,TK-10 renal,> 100000 nM
same,GI50,SF-539 CNS,1860 nM
same,TGI,SF-539 CNS,3700 nM
same,GI50,SR leukemia,501 nM
same,TGI,SR leukemia,1670 nM
same,GI50,UACC-62 melanoma,1390 nM
same,TGI,UACC-62 melanoma,2860 nM
same,GI50,SNB-75 CNS,1550 nM
same,TGI,SNB-75 CNS,3600 nM
same,GI50,MDA-MB-435 melanoma,2290 nM
same,TGI,MDA-MB-435 melanoma,7700 nM
same,GI50,SN12C renal,2400 nM
same,TGI,SN12C renal,5720 nM
same,GI50,K-562 leukemia,2830 nM
same,TGI,K-562 leukemia,> 100000 nM
same,GI50,HT29 colon,3740 nM
same,TGI,HT29 colon,> 100000 nM
same,GI50,KM12 colon,218 nM
same,TGI,KM12 colon,1720 nM
